Assays:
A-549 = assay: cells; settings: Homo sapiens, A549, 48 h; for GI50: read-out: GI50 A549; for CC50: read-out: LC50 A549; for IC (TGI): read-out: TGI A549
In short: (§1)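 Colorimetric SRB read (490 nm) on triplicate wells after 48 h at 37 °C, 5% CO2. Dose range 10 to 10^−8 μg/ml; 5×10^3 cells/well pre-attached 18 h.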

LoVo = assay: cells; settings: Homo sapiens, LoVo, 48 h; for GI50: read-out: GI50 LOVO; for CC50: read-out: LC50 LOVO; for IC (TGI): read-out: TGI LOVO
In short: as §1

HT-29 = assay: cells; settings: Homo sapiens, HT-29, 48 h; for GI50: read-out: GI50 HT29; for CC50: read-out: LC50 HT29; for IC (TGI): read-out: TGI HT29
In short: as §1

K-562 = assay: Inhibition of cells growth by colorimetric assay (SRB); settings: Homo sapiens, K562, 48 h; for GI50: read-out: GI50 K562; for CC50: read-out: LC50 K562; for IC (TGI): read-out: TGI K562
In short: as §1

HeLa = assay: as above; settings: Homo sapiens, HeLa, 48 h; for GI50: read-out: GI50 HELA; for CC50: read-out: LC50 HELA; for IC (TGI): read-out: TGI HELA
In short: as §1

IGROV-1 = assay: as above; settings: Homo sapiens, IGROV-1, 48 h; for GI50: read-out: GI50 IGROV; for CC50: read-out: LC50 IGROV; for IC (TGI): read-out: TGI IGROV
In short: as §1

DU-145 = assay: as above; settings: Homo sapiens, DU-145, 48 h; for GI50: read-out: GI50 DU145; for CC50: read-out: LC50 DU145; for IC (TGI): read-out: TGI DU145
In short: as §1

IGROV-ET = assay: as above; settings: Homo sapiens, 48 h; for GI50: read-out: GI50 IGROV-ET; for CC50: read-out: LC50 IGROV-ET; for IC (TGI): read-out: TGI IGROV-ET
In short: as §1

HeLa-APL = assay: as above; settings: Homo sapiens, 48 h; for GI50: read-out: GI50 HELA-APL; for CC50: read-out: LC50 HELA-APL; for IC (TGI): read-out: TGI HELA-APL
In short: as §1

SK-MEL-28 = assay: as above; settings: Homo sapiens, SK-MEL-28, 48 h; for GI50: read-out: GI50 MEL-28; for CC50: read-out: LC50 MEL-28; for IC (TGI): read-out: TGI MEL-28
In short: as §1

LoVo-Dox = assay: as above; settings: Homo sapiens, 48 h; for GI50: read-out: GI50 LOVO-DOX; for CC50: read-out: LC50 LOVO-DOX; for IC (TGI): read-out: TGI LOVO-DOX
In short: as §1

LNCaP = assay: as above; settings: Homo sapiens, LNCaP, 48 h; for GI50: read-out: GI50 LNCAP; for CC50: read-out: LC50 LNCAP; for IC (TGI): read-out: TGI LNCAP
In short: as §1

PANC-1 = assay: as above; settings: Homo sapiens, PANC-1, 48 h; for GI50: read-out: GI50 PANC-1; for CC50: read-out: LC50 PANC-1; for IC (TGI): read-out: TGI PANC-1
In short: as §1

SK-BR-3 = assay: as above; settings: Homo sapiens, SK-BR-3, 48 h; for GI50: read-out: GI50 SK-BR3; for CC50: read-out: LC50 SK-BR3; for IC (TGI): read-out: TGI SK-BR3
In short: as §1

## C=CCN1[C@@H]2c3c(cc(C)c(OC)c3O)C[C@H]1[C@H](C#N)N1C2[C@@H]2SCC(NC(=O)C(F)(F)F)C(=O)OC[C@H]1c1c3c(c(C)c(OC(C)=O)c12)OCO3 (stereo partly drawn) [compound 25]
A-549
  GI50: 927 nM
  CC50: 11500 nM
  IC (TGI): 3450 nM
LoVo
  GI50: 938 nM
  CC50: 9270 nM
  IC (TGI): 3160 nM
HT-29
  GI50: 1640 nM
  CC50: 13900 nM
  IC (TGI): 8570 nM
K-562
  GI50: 316 nM
  CC50: 3780 nM
  IC (TGI): 775 nM
HeLa
  GI50: 1500 nM
  CC50: 8110 nM
  IC (TGI): 3480 nM
IGROV-1
  GI50: 660 nM
  CC50: 8010 nM
  IC (TGI): 1430 nM
DU-145
  GI50: 861 nM
  CC50: 6570 nM
  IC (TGI): 2200 nM
IGROV-ET
  GI50: 1610 nM
  CC50: 12100 nM
  IC (TGI): 4410 nM
HeLa-APL
  GI50: 939 nM
  CC50: 7690 nM
  IC (TGI): 2780 nM
SK-MEL-28
  GI50: 632 nM
  CC50: 5650 nM
  IC (TGI): 1770 nM
LoVo-Dox
  GI50: 904 nM
  CC50: 13900 nM
  IC (TGI): 3770 nM
LNCaP
  GI50: 323 nM
  CC50: 2550 nM
  IC (TGI): 757 nM
PANC-1
  GI50: 1370 nM
  CC50: 11000 nM
  IC (TGI): 3900 nM
SK-BR-3
  GI50: 555 nM
  CC50: 8640 nM
  IC (TGI): 1060 nM

## COC1=C(C)C(=O)C2=C(C1=O)[C@@H]1C3[C@@H]4SC[C@]5(NCCc6c5[nH]c5ccccc65)C(=O)OC[C@@H](c5c6c(c(C)c(OC(C)=O)c54)OCO6)N3[C@@H](C#N)[C@H](C2)N1C (stereo partly drawn) [compound 23]
A-549
  GI50: 60.6 nM
  CC50: 785 nM
  IC (TGI): 211 nM
LoVo
  GI50: 276 nM
  CC50: 983 nM
  IC (TGI): 522 nM
HT-29
  GI50: 51.2 nM
  CC50: 12900 nM
  IC (TGI): 215 nM
K-562
  GI50: 20.3 nM
  CC50: 1400 nM
  IC (TGI): 73.3 nM
HeLa
  GI50: 38.2 nM
  CC50: 114 nM
  IC (TGI): 66 nM
IGROV-1
  GI50: 350 nM
  CC50: 1130 nM
  IC (TGI): 627 nM
DU-145
  GI50: 58.5 nM
  CC50: 4450 nM
  IC (TGI): 143 nM
IGROV-ET
  GI50: 456 nM
  CC50: 1260 nM
  IC (TGI): 760 nM
HeLa-APL
  GI50: 35.6 nM
  CC50: 102 nM
  IC (TGI): 60.3 nM
SK-MEL-28
  GI50: 247 nM
  CC50: 857 nM
  IC (TGI): 460 nM
LoVo-Dox
  GI50: 661 nM
  CC50: 12900 nM
  IC (TGI): 7460 nM
LNCaP
  GI50: 153 nM
  CC50: 657 nM
  IC (TGI): 318 nM
PANC-1
  GI50: 509 nM
  CC50: 12900 nM
  IC (TGI): 1260 nM
SK-BR-3
  GI50: 13.1 nM
  CC50: 645 nM
  IC (TGI): 87.7 nM

From patent US7767659B2, “Synthesis of naturally occurring ecteinascidins and related compounds” (Pharma Mar, S.A., priority 2002, dated 2010)
